In patent US12479834B2, “Phenol compound or salt thereof” (TAIHO PHARMACEUTICAL CO., LTD., priority 2019, dated 2025):

Key:
KRAS G12C mutant = target: T1, KRAS G12C mutant (Homo sapiens, UniProt P01116, G12C); assay: Inhibition of SOS1-mediated nucleotide (GDP-GTP) exchange reaction of KRAS G12C mutant, BODIPY FL GDP fluorescence; format: biochemical; conditions: preincubated 25° C. 4 hours with 25 nM KRAS G12C bound with BODIPY FL GDP; SOS1 100 nM, GppNHp 1 μM, 30 minutes
T1 construct: 50 μM G12C K-Ras4B (1-169) protein and 1 mM BODIPY® FL GDP; His tag (N, cleaved yes); made in house; host or cells: E. coli BL21 (DE3)
Outline: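 KRAS G12C (1-169) loaded with BODIPY FL GDP (25 nM) was preincubated with compound (5% DMSO) for 4 h at 25 °C. Exchange then ran 30 min with SOS1 (564-1049, 100 nM) and 1 µM GppNHp. IC50 came from the 485/520 nm fluorescence change, normalized to DMSO and no-GppNHp controls.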

G12C K-Ras4B (1-169) = target: T2, G12C K-Ras4B (1-169) (Homo sapiens, UniProt P01116, G12C); assay: Binding to KRAS G12C mutant, compound binding rate by LC-MS; conditions: final compound concentration 2 μM, 1 μM protein, 2 hours at 25° C.
T2 construct: G12C K-Ras4B (1-169) protein, which was a KRAS G12C mutant; His tag (N, cleaved yes); made in house; host or cells: E. coli BL21 (DE3)
Outline: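 Covalent labelling at 2 μM final compound on a mix of 1 μM each wild-type and G12C K-Ras4B (1-169) (E. coli-expressed, tag removed) in 1×TBS, 0.1 mM TCEP, 2 h at 25° C., quenched with formic acid. Intact-protein ESI Q-TOF LC-MS; binding rate from adduct vs unbound protein signal, graded A–E in 20% bands.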

For C=CC(=O)N1CC(NC(=O)c2cnc(CNc3cc(C(C)(C)C)c(Cl)cc3O)[nH]2)C1 [Example 26, N-(1-Acryloylazetidin-3-yl)-2-(((5-(tert-butyl)-4-chloro-2-hydroxyphenyl)amino)methyl)-1H-imidazole-5-carboxamide], the IC50 (KRAS G12C mutant) was 212 nM and the “binding rate for G12C K-Ras4B (1-169)” value (G12C K-Ras4B (1-169)) was “A (80% or more)”.

In the case of C=CC(=O)N1CC(NC(=O)c2sc(Cc3cc(C(C)(C)C)c(Cl)cc3O)nc2C)C1 [Example 95, N-(1-Acryloylazetidin-3-yl)-2-(5-(tert-butyl)-4-chloro-2-hydroxybenzyl)-4-methylthiazole-5-carboxamide], the IC50 (KRAS G12C mutant) is reported as 467 nM and the “binding rate for G12C K-Ras4B (1-169)” value (G12C K-Ras4B (1-169)) is reported as “C (40% or more and less than 60%)”.

C=CC(=O)N1CC(NC(=O)c2cnc(CNc3cc(C(C)(C)C)c(Cl)cc3O)s2)C1 [Example 9, N-(1-Acryloylazetidin-3-yl)-2-(((5-(tert-butyl)-4-chloro-2-hydroxyphenyl)amino)methyl)thiazole-5-carboxamide] was tested, and the IC50 (KRAS G12C mutant) was 39 nM and the “binding rate for G12C K-Ras4B (1-169)” value (G12C K-Ras4B (1-169)) was “A (80% or more)”.

With C=CC(=O)N1CC(N(C)C(=O)c2cnc(CNc3cc(C(C)(C)C)c(Cl)cc3O)o2)C1 [Example 28, N-(1-Acryloylazetidin-3-yl)-2-(((5-(tert-butyl)-4-chloro-2-hydroxyphenyl)amino)methyl)-N-methyloxazole-5-carboxamide] the IC50 (KRAS G12C mutant) was 201 nM and the “binding rate for G12C K-Ras4B (1-169)” value (G12C K-Ras4B (1-169)) was “C (40% or more and less than 60%)”.

C=CC(=O)N1CC(NC(=O)c2cnc(CNc3cc(CCC)c(Cl)cc3O)n2C)C1 [Example 64, N-(1-Acryloylazetidin-3-yl)-2-(((4-chloro-2-hydroxy-5-propylphenyl)amino)methyl)-1-methyl-1H-imidazole-5-carboxamide] was tested, and the IC50 (KRAS G12C mutant) was 366 nM and the “binding rate for G12C K-Ras4B (1-169)” value (G12C K-Ras4B (1-169)) was “D (20% or more and less than 40%)”.

For C=CC(=O)N1CC(NC(=O)c2cnc(CNc3cc(C(C)(C)C)c(Cl)c(F)c3O)n2C)C1 [Example 73, N-(1-Acryloylazetidin-3-yl)-2-(((5-(tert-butyl)-4-chloro-3-fluoro-2-hydroxyphenyl)amino)methyl)-1-methyl-1H-imidazole-5-carboxamide], the IC50 (KRAS G12C mutant) was 69 nM and the “binding rate for G12C K-Ras4B (1-169)” value (G12C K-Ras4B (1-169)) was “B (60% or more and less than 80%)”.

In the case of C=CC(=O)N1CC(NC(=O)c2sc(CNc3cc(C(C)(C)C)c(Cl)cc3O)nc2C(F)(F)F)C1 [Example 24, N-(1-Acryloylazetidin-3-yl)-2-(((5-(tert-butyl)-4-chloro-2-hydroxyphenyl)amino)methyl)-4-(trifluoromethyl)thiazole-5-carboxamide], the IC50 (KRAS G12C mutant) is reported as 780 nM and the “binding rate for G12C K-Ras4B (1-169)” value (G12C K-Ras4B (1-169)) is reported as “C (40% or more and less than 60%)”.

In the case of C=CC(=O)N1CC(N(C)C(=O)c2cnc(CNc3cc(C(C)(C)C)c(Cl)cc3O)s2)C1 [Example 31, N-(1-Acryloylazetidin-3-yl)-2-(((5-(tert-butyl)-4-chloro-2-hydroxyphenyl)amino)methyl)-N-methylthiazole-5-carboxamide], the IC50 (KRAS G12C mutant) is reported as 247 nM and the “binding rate for G12C K-Ras4B (1-169)” value (G12C K-Ras4B (1-169)) is reported as “C (40% or more and less than 60%)”.

C=CC(=O)N1CC(NC(=O)c2cncc(CNc3cc(C(C)(C)C)c(Cl)cc3O)c2)C1 [Example 17, N-(1-Acryloylazetidin-3-yl)-5-(((5-(tert-butyl)-4-chloro-2-hydroxyphenyl)amino)methyl)nicotinamide] was tested, and the IC50 (KRAS G12C mutant) was 2070 nM and the “binding rate for G12C K-Ras4B (1-169)” value (G12C K-Ras4B (1-169)) was “D (20% or more and less than 40%)”.

C=CC(=O)N1CC(NC(=O)c2cnc(CNc3cc(C(C)(C)C)c(Cl)cc3O)o2)C1 [Example 11, N-(1-Acryloylazetidin-3-yl)-2-(((5-(tert-butyl)-4-chloro-2-hydroxyphenyl)amino)methyl)oxazole-5-carboxamide] was tested, and the IC50 (KRAS G12C mutant) was 123 nM and the “binding rate for G12C K-Ras4B (1-169)” value (G12C K-Ras4B (1-169)) was “B (60% or more and less than 80%)”.

C=CC(=O)N1CC(NC(=O)c2cnc(C(C)Nc3cc(C(C)(C)C)c(Cl)cc3O)n2C)C1 (stereo not drawn) [Example 80, N-(1-Acryloylazetidin-3-yl)-2-(1-((5-(tert-butyl)-4-chloro-2-hydroxyphenyl)amino)ethyl)-1-methyl-1H-imidazole-5-carboxamide] was tested, and the IC50 (KRAS G12C mutant) was 104 nM and the “binding rate for G12C K-Ras4B (1-169)” value (G12C K-Ras4B (1-169)) was “B (60% or more and less than 80%)”.

In the case of C=CC(=O)N1CC(NC(=O)c2ccc(CNc3cc(C(=C)C)c(Cl)cc3O)o2)C1 [Example 47, N-(1-Acryloylazetidin-3-yl)-5-(((4-chloro-2-hydroxy-5-(prop-1-en-2-yl)phenyl)amino)methyl)furan-2-carboxamide], the IC50 (KRAS G12C mutant) is reported as 4740 nM and the “binding rate for G12C K-Ras4B (1-169)” value (G12C K-Ras4B (1-169)) is reported as “D (20% or more and less than 40%)”.

In the case of C=CC(=O)N1CC(N(C)C(=O)c2cc(CNc3cc(C(C)(C)C)c(Cl)cc3O)co2)C1 [Example 34, N-(1-Acryloylazetidin-3-yl)-4-(((5-(tert-butyl)-4-chloro-2-hydroxyphenyl)amino)methyl)-N-methylfuran-2-carboxamide], the IC50 (KRAS G12C mutant) is reported as 80 nM and the “binding rate for G12C K-Ras4B (1-169)” value (G12C K-Ras4B (1-169)) is reported as “A (80% or more)”.

With C=CC(=O)N1CC(NC(=O)c2cnc(CNc3cc(C(C)C(F)(F)F)c(Cl)cc3O)n2C)C1 (stereo not drawn) [Example 59, N-(1-Acryloylazetidin-3-yl)-2-(((4-chloro-2-hydroxy-5-(1,1,1-trifluoropropan-2-yl)phenyl)amino)methyl)-1-methyl-1H-imidazole-5-carboxamide] the IC50 (KRAS G12C mutant) was 140 nM and the “binding rate for G12C K-Ras4B (1-169)” value (G12C K-Ras4B (1-169)) was “B (60% or more and less than 80%)”.

With C=CC(=O)N1CC(NC(=O)c2cnc(CNc3cc([Si](C)(C)C)c(Cl)cc3O)n2C)C1 [Example 62, N-(1-Acryloylazetidin-3-yl)-2-(((4-chloro-2-hydroxy-5-(trimethylsilyl)phenyl)amino)methyl)-1-methyl-1H-imidazole-5-carboxamide] the IC50 (KRAS G12C mutant) was 11 nM and the “binding rate for G12C K-Ras4B (1-169)” value (G12C K-Ras4B (1-169)) was “A (80% or more)”.

For C=CC(=O)N1CC(N(C)C(=O)c2csc(CNc3cc(C(C)(C)C)c(Cl)cc3O)n2)C1 [Example 32, N-(1-Acryloylazetidin-3-yl)-2-(((5-(tert-butyl)-4-chloro-2-hydroxyphenyl)amino)methyl)-N-methylthiazole-4-carboxamide], the IC50 (KRAS G12C mutant) was 64 nM and the “binding rate for G12C K-Ras4B (1-169)” value (G12C K-Ras4B (1-169)) was “B (60% or more and less than 80%)”.

With C=CC(=O)N1CC(NC(=O)c2csc(CNc3cc(C(C)(C)C)c(Cl)cc3O)n2)C1 [Example 8, N-(1-Acryloylazetidin-3-yl)-2-(((5-(tert-butyl)-4-chloro-2-hydroxyphenyl)amino)methyl)thiazole-4-carboxamide] the IC50 (KRAS G12C mutant) was 58 nM and the “binding rate for G12C K-Ras4B (1-169)” value (G12C K-Ras4B (1-169)) was “A (80% or more)”.

With C=CC(=O)N1CC(NC(=O)c2ccc(CNc3cc(C(C)(C)C)c(Cl)cc3OC)o2)C1 [Reference Example1, N-(1-Acryloylazetidin-3-yl)-5-(((5-(tert-butyl)-4-chloro-2-methoxyphenyl)amino)methyl)furan-2-carboxamide, reference compound] the IC50 (KRAS G12C mutant) was > 10000 nM and the “binding rate for G12C K-Ras4B (1-169)” value (G12C K-Ras4B (1-169)) was “E (less than 20%)”.

C=CC(=O)N1CC(NC(=O)c2nc(CNc3cc(C(C)(C)C)c(Cl)cc3O)cn2C)C1 [Example 19, N-(1-Acryloylazetidin-3-yl)-4-(((5-(tert-butyl)-4-chloro-2-hydroxyphenyl)amino)methyl)-1-methyl-1H-imidazole-2-carboxamide] was tested, and the IC50 (KRAS G12C mutant) was 233 nM and the “binding rate for G12C K-Ras4B (1-169)” value (G12C K-Ras4B (1-169)) was “A (80% or more)”.

In the case of C=CC(=O)N1CC(NC(=O)c2cnc(CNc3cc(C(C)(C)C)c(C=C)cc3O)n2C)C1 [Example 69, N-(1-Acryloylazetidin-3-yl)-2-(((5-(tert-butyl)-2-hydroxy-4-vinylphenyl)amino)methyl)-1-methyl-1H-imidazole-5-carboxamide], the IC50 (KRAS G12C mutant) is reported as 89 nM and the “binding rate for G12C K-Ras4B (1-169)” value (G12C K-Ras4B (1-169)) is reported as “B (60% or more and less than 80%)”.

CN(C)C/C=C/C(=O)N1CC(N(C)C(=O)c2ccc(CNc3cc(C(C)(C)C)c(Cl)cc3O)o2)C1 [Example 87, (E)-5-(((5-(tert-Butyl)-4-chloro-2-hydroxyphenyl)amino)methyl)-N-(1-(4-(dimethylamino)but-2-enoyl)azetidin-3-yl)-N-methylfuran-2-carboxamide] was tested, and the IC50 (KRAS G12C mutant) was 193 nM and the “binding rate for G12C K-Ras4B (1-169)” value (G12C K-Ras4B (1-169)) was “A (80% or more)”.

In the case of C=CC(=O)N1CC(NC(=O)c2ccc(CNc3cc(C(F)(F)F)c(Cl)cc3O)o2)C1 [Example 50, N-(1-Acryloylazetidin-3-yl)-5-(((4-chloro-2-hydroxy-5-(trifluoromethyl)phenyl)amino)methyl)furan-2-carboxamide], the IC50 (KRAS G12C mutant) is reported as 3140 nM and the “binding rate for G12C K-Ras4B (1-169)” value (G12C K-Ras4B (1-169)) is reported as “D (20% or more and less than 40%)”.

In the case of C=CC(=O)N1CC(NC(=O)c2cnc(CNc3nc([Si](C)(C)C)c(Cl)cc3O)n2C)C1 [Example 84, N-(1-Acryloylazetidin-3-yl)-2-(((5-chloro-3-hydroxy-6-(trimethylsilyl)pyridin-2-yl)amino)methyl)-1-methyl-1H-imidazole-5-carboxamide], the IC50 (KRAS G12C mutant) is reported as 63 nM and the “binding rate for G12C K-Ras4B (1-169)” value (G12C K-Ras4B (1-169)) is reported as “A (80% or more)”.

In the case of C=CC(=O)N1CC(NC(=O)c2cnc(CNc3cc(C(C)(C)C)c(C)cc3O)n2C)C1 [Example 68, N-(1-Acryloylazetidin-3-yl)-2-(((5-(tert-butyl)-2-hydroxy-4-methylphenyl)amino)methyl)-1-methyl-1H-imidazole-5-carboxamide], the IC50 (KRAS G12C mutant) is reported as 33 nM and the “binding rate for G12C K-Ras4B (1-169)” value (G12C K-Ras4B (1-169)) is reported as “A (80% or more)”.
